# Assay results: patent US20030180304A1, “Secretory tyrosine phosphatases from mycobacteria” (priority 2000, published 2003)
# Entries after “also recorded” stand apart in the source; their conditions may differ.
# Experiments:
# MptpB = molecular target: T1, MptpB (Mycobacterium tuberculosis, UniProt I6WXK4); format: biochemical, M. tuberculosis; settings: pH 5.6
# T1 construct: made in house; host or cells: E. coli BL21 (pGEX-5X-3)
# MptpA = molecular target: T2, MptpA (Mycobacterium tuberculosis, UniProt P9WIA1); format: biochemical, M. tuberculosis; settings: pH 7
# T2 construct: made in house; host or cells: E. coli BL21 (pGEX-5X-3)
# T2 sequence (P9WIA1 whole entry): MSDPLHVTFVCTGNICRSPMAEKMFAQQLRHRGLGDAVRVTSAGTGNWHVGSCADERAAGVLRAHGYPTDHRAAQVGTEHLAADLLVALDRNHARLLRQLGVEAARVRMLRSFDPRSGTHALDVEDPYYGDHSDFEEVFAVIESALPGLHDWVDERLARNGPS
# T1 sequence (I6WXK4 whole entry, looked up): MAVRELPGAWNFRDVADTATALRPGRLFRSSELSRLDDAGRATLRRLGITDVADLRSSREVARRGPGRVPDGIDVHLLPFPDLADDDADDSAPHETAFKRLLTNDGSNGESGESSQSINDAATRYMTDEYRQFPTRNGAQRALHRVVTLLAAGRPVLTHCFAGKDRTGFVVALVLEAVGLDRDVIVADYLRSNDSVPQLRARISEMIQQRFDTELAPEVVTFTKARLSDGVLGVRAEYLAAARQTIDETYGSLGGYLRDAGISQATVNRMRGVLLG
Structure (SMILES),Effect of inhibitor on the activity of MptpB towards tyrosine phosphorylated MBP (MptpB),Effect of inhibitor on the activity of MptpA towards tyrosine phosphorylated MBP (MptpA)
[Na+].[Na+].[Na+].[O]=[V]([O-])([O-])[O-] [sodium orthovanadate],inhibited,inhibited
O=C(O)C(O)C(O)C(=O)O (stereo not shown) [tartrate],had no effect; also recorded: insensitive,had no effect; also recorded: insensitive
c1ccc(C2CN3CCSC3=N2)cc1 (stereo not shown) [tetramisole],had no effect; also recorded: insensitive,had no effect; also recorded: insensitive
[F-].[Na+] [sodium fluoride],had no effect,had no effect
C=C1[C@@H](O)[C@@H]2O[C@]3(CC[C@H](/C=C/[C@@H](C)[C@@H]4CC(C)=C[C@@]5(O[C@H](C[C@@](C)(O)C(=O)O)CC[C@H]5O)O4)O3)CC[C@H]2O[C@@H]1[C@@H](O)C[C@H](C)[C@H]1O[C@@]2(CCCCO2)CC[C@H]1C [okadaic acid],had no effect; also recorded: did not inhibit,had no effect; also recorded: did not inhibit
